Results reported in patent US20170190671A1, “BIS(ARYL)CATECHOL DERIVATIVES AS HERBICIDES” (E I DU PONT DE NEMOURS AND COMPANY, priority 2014, published 2017).

Legend:
Assay type in all cases: in vivo
[1] = test system: galium (catchweed bedstraw, Galium aparine); experiment: Test C preemergence; conditions: Galium, pre-emergence, 336 h, scale 0 to 100, read-out: Plant response rating, Galium
Outline: (§1)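 Visual ratings were made 13-15 days after treatment in the greenhouse, scored 0-100 against controls, where 100 means complete control. Treatments used a surfactant-containing non-phytotoxic solvent formulation, applied preemergence to seeds in loam-sand soil or postemergence to 2-18 cm plants (1-4 leaves) in peat-based medium.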

[2] = test system: barnyardgrass (Echinochloa crus-galli); experiment: Test C preemergence; conditions: Echinochloa crus-galli, pre-emergence, read-out: Plant response rating, Barnyardgrass
Outline: as §1

[3] = test system: johnsongrass (Sorghum halepense); experiment: Test C preemergence; conditions: Sorghum halepense, pre-emergence, 336 h, scale 0 to 100, read-out: Plant response rating, Johnsongrass
Outline: as §1

[4] = test system: chickweed (common chickweed, Stellaria media); experiment: Test C postemergence; conditions: Stellaria media, post-emergence, Postemergence, scale 0 to 100, read-out: Plant response rating, Chickweed
Outline: as §1

[5] = test system: waterhemp (common waterhemp, Amaranthus rudis); experiment: Test C postemergence; conditions: Amaranthus tuberculatus, post-emergence, Postemergence, scale 0 to 100, read-out: Plant response rating, Waterhemp
Outline: as §1

soybean (Glycine max) = experiment: Test C postemergence; conditions: Glycine max, post-emergence, Postemergence, scale 0 to 100, read-out: Plant response rating, Soybean
Outline: as §1

corn (Zea mays) = experiment: Test C postemergence; conditions: Zea mays, post-emergence, 336 h, Postemergence, scale 0 to 100
Outline: as §1

wild oat (Avena fatua) = experiment: Test C postemergence; conditions: Avena fatua, post-emergence, Postemergence, scale 0 to 100, read-out: Plant response rating, Oat, Wild
Outline: as §1

[6] = test system: galium (catchweed bedstraw, Galium aparine); experiment: Test C postemergence; conditions: Galium, post-emergence, 336 h, Postemergence, scale 0 to 100, read-out: Plant response rating, Galium
Outline: as §1

[7] = test system: large (Lg) crabgrass (Digitaria sanguinalis); experiment: Test C postemergence; conditions: Digitaria sanguinalis, post-emergence, 336 h, Postemergence, scale 0 to 100, read-out: Plant response rating, Crabgrass, Large
Outline: as §1

[8] = test system: yellow nutsedge (Cyperus esculentus); experiment: Test C postemergence; conditions: Cyperus, post-emergence, 336 h, Postemergence, scale 0 to 100, read-out: Plant response rating, Nutsedge, Yellow
Outline: as §1

[9] = test system: blackgrass (Alopecurus myosuroides); experiment: Test C postemergence; conditions: Alopecurus myosuroides, post-emergence, 336 h, Postemergence, scale 0 to 100, read-out: Plant response rating, Blackgrass
Outline: as §1

[10] = test system: winter wheat (Triticum aestivum); experiment: Test C postemergence; conditions: Triticum aestivum, post-emergence, 336 h, Postemergence, scale 0 to 100, read-out: Plant response rating, Wheat
Outline: as §1

[11] = test system: morningglory (Ipomoea coccinea); experiment: Test C postemergence; conditions: Ipomoea, post-emergence, 336 h, Postemergence, scale 0 to 100, read-out: Plant response rating, Morningglory
Outline: as §1

[12] = test system: velvetleaf (Abutilon theophrasti); experiment: Test C postemergence; conditions: Abutilon theophrasti, post-emergence, Postemergence, scale 0 to 100, read-out: Plant response rating, Velvetleaf
Outline: as §1

[13] = test system: giant foxtail (Setaria faberii); experiment: Test C postemergence; conditions: Setaria faberi, post-emergence, 336 h, Postemergence, scale 0 to 100, read-out: Plant response rating, Foxtail, Giant
Outline: as §1

[14] = test system: ragweed (common ragweed, Ambrosia elatior); experiment: Test C postemergence; conditions: Ambrosia artemisiifolia, post-emergence, 336 h, Postemergence, scale 0 to 100, read-out: Plant response rating, Ragweed
Outline: as §1

[15] = test system: oilseed rape (Brassica napus); experiment: Test C postemergence; conditions: Brassica napus, post-emergence, Postemergence, scale 0 to 100, read-out: Plant response rating, Oilseed Rape
Outline: as §1

[16] = test system: Italian ryegrass (Lolium multiflorum); experiment: Test C postemergence; conditions: Lolium multiflorum, post-emergence, 336 h, Postemergence, scale 0 to 100, read-out: Plant response rating, Ryegrass, Italian
Outline: as §1

[17] = test system: barnyardgrass (Echinochloa crus-galli); experiment: Test C postemergence; conditions: Echinochloa crus-galli, post-emergence, Postemergence, scale 0 to 100, read-out: Plant response rating, Barnyardgrass
Outline: as §1

[18] = test system: lambsquarters (Chenopodium album); experiment: Test C postemergence; conditions: Chenopodium album, post-emergence, 336 h, Postemergence, scale 0 to 100, read-out: Plant response rating, Lambsquarters
Outline: as §1

[19] = test system: johnsongrass (Sorghum halepense); experiment: Test C postemergence; conditions: Sorghum halepense, post-emergence, 336 h, Postemergence, scale 0 to 100, read-out: Plant response rating, Johnsongrass
Outline: as §1

SMILES: Fc1cccc(Oc2ncc(Cl)cn2)c1Oc1ncc(C(F)(F)F)cn1 [Compound 43, 5-chloro-2-[5-fluoro-6-[[5-(trifluoromethyl)-2-pyrimidinyl]oxy]phenoxy]pyrimidine]
- pest or weed control at 31 g/ha ([1]; 31 g ai/ha, preemergence): 95%
- pest or weed control at 62 g/ha ([1]; 62 g ai/ha, preemergence): 100%
- pest or weed control at 125 g/ha ([1]; 125 g ai/ha, preemergence): 100%
- pest or weed control at 16 g/ha ([1]; Preemergence, 16 g ai/ha): 95%
- pest or weed control at 31 g/ha ([2]; 31 g ai/ha, preemergence, scale 0 to 100): 85%
- pest or weed control at 62 g/ha ([2]; 62 g ai/ha, preemergence, scale 0 to 100): 100%
- pest or weed control at 125 g/ha ([2]; 125 g ai/ha, preemergence, scale 0 to 100): 100%
- pest or weed control at 16 g/ha ([2]; Preemergence, 16 g ai/ha, scale 0 to 100 (0 no effect, 100 complete control)): 60%
- pest or weed control at 31 g/ha ([3]; 31 g ai/ha, preemergence): 75%
- pest or weed control at 62 g/ha ([3]; 62 g ai/ha, preemergence): 100%
- pest or weed control at 125 g/ha ([3]; 125 g ai/ha, preemergence): 100%
- pest or weed control at 16 g/ha ([3]; Preemergence, 16 g ai/ha): 20%
- pest or weed control at 16 g/ha ([4]; 16 g ai/ha): 40%
- pest or weed control at 31 g/ha ([4]; 31 g ai/ha): 70%
- pest or weed control at 62 g/ha ([4]; 62 g ai/ha): 70%
- pest or weed control at 125 g/ha ([4]; 125 g ai/ha): 100%
- pest or weed control at 31 g/ha ([5]; 31 g ai/ha): 70%
- pest or weed control at 62 g/ha ([5]; 62 g ai/ha): 80%
- pest or weed control at 125 g/ha ([5]; 125 g ai/ha): 90%
- plant injury at 31 g/ha (soybean (Glycine max); 31 g ai/ha): 55%
- plant injury at 62 g/ha (soybean (Glycine max); 62 g ai/ha): 75%
- plant injury at 125 g/ha (soybean (Glycine max); 125 g ai/ha): 70%
- Corn plant response rating (crop injury, 0 = no effect, 100 = complete kill) at 16 g/ha (corn (Zea mays); 16 g ai/ha): 5%
- Corn plant response rating (crop injury, 0 = no effect, 100 = complete kill) at 31 g/ha (corn (Zea mays); 31 g ai/ha): 5%
- Corn plant response rating (crop injury, 0 = no effect, 100 = complete kill) at 62 g/ha (corn (Zea mays); 62 g ai/ha): 5%
- Corn plant response rating (crop injury, 0 = no effect, 100 = complete kill) at 125 g/ha (corn (Zea mays); 125 g ai/ha): 5%
- pest or weed control at 31 g/ha (wild oat (Avena fatua); 31 g ai/ha): 5%
- pest or weed control at 62 g/ha (wild oat (Avena fatua); 62 g ai/ha): 20%
- pest or weed control at 125 g/ha (wild oat (Avena fatua); 125 g ai/ha): 60%
- pest or weed control at 16 g/ha ([6]; 16 g ai/ha): 35%
- pest or weed control at 31 g/ha ([6]; 31 g ai/ha): 80%
- pest or weed control at 62 g/ha ([6]; 62 g ai/ha): 85%
- pest or weed control at 125 g/ha ([6]; 125 g ai/ha): 90%
- pest or weed control at 16 g/ha ([7]; 16 g ai/ha): 5%
- pest or weed control at 31 g/ha ([7]; 31 g ai/ha): 5%
- pest or weed control at 62 g/ha ([7]; 62 g ai/ha): 10%
- pest or weed control at 125 g/ha ([7]; 125 g ai/ha): 40%
- pest or weed control at 31 g/ha ([8]; 31 g ai/ha): 0%
- pest or weed control at 62 g/ha ([8]; 62 g ai/ha): 0%
- pest or weed control at 125 g/ha ([8]; 125 g ai/ha): 5%
- pest or weed control at 16 g/ha ([9]; 16 g ai/ha): 0%
- pest or weed control at 31 g/ha ([9]; 31 g ai/ha): 30%
- pest or weed control at 62 g/ha ([9]; 62 g ai/ha): 75%
- pest or weed control at 125 g/ha ([9]; 125 g ai/ha): 95%
- plant injury at 31 g/ha ([10]; 31 g ai/ha): 0%
- plant injury at 62 g/ha ([10]; 62 g ai/ha): 0%
- plant injury at 125 g/ha ([10]; 125 g ai/ha): 5%
- pest or weed control at 31 g/ha ([11]; 31 g ai/ha): 85%
- pest or weed control at 62 g/ha ([11]; 62 g ai/ha): 80%
- pest or weed control at 125 g/ha ([11]; 125 g ai/ha): 80%
- pest or weed control at 31 g/ha ([12]; 31 g ai/ha): 55%
- pest or weed control at 62 g/ha ([12]; 62 g ai/ha): 75%
- pest or weed control at 125 g/ha ([12]; 125 g ai/ha): 85%
- pest or weed control at 16 g/ha ([13]; 16 g ai/ha): 5%
- pest or weed control at 31 g/ha ([13]; 31 g ai/ha): 5%
- pest or weed control at 62 g/ha ([13]; 62 g ai/ha): 15%
- pest or weed control at 125 g/ha ([13]; 125 g ai/ha): 35%
- pest or weed control at 31 g/ha ([14]; 31 g ai/ha): 75%
- pest or weed control at 62 g/ha ([14]; 62 g ai/ha): 65%
- pest or weed control at 125 g/ha ([14]; 125 g ai/ha): 80%
- plant injury at 31 g/ha ([15]; 31 g ai/ha): 50%
- plant injury at 62 g/ha ([15]; 62 g ai/ha): 65%
- plant injury at 125 g/ha ([15]; 125 g ai/ha): 50%
- pest or weed control at 31 g/ha ([16]; 31 g ai/ha): 0%
- pest or weed control at 62 g/ha ([16]; 62 g ai/ha): 10%
- pest or weed control at 125 g/ha ([16]; 125 g ai/ha): 15%
- pest or weed control at 16 g/ha ([17]; 16 g ai/ha): 5%
- pest or weed control at 31 g/ha ([17]; 31 g ai/ha): 5%
- pest or weed control at 62 g/ha ([17]; 62 g ai/ha): 10%
- pest or weed control at 125 g/ha ([17]; 125 g ai/ha): 35%
- pest or weed control at 16 g/ha ([18]; 16 g ai/ha): 60%
- pest or weed control at 31 g/ha ([18]; 31 g ai/ha): 80%
- pest or weed control at 62 g/ha ([18]; 62 g ai/ha): 90%
- pest or weed control at 125 g/ha ([18]; 125 g ai/ha): 95%
- pest or weed control at 16 g/ha ([19]; 16 g ai/ha): 0%
- pest or weed control at 31 g/ha ([19]; 31 g ai/ha): 5%
- pest or weed control at 62 g/ha ([19]; 62 g ai/ha): 10%
- pest or weed control at 125 g/ha ([19]; 125 g ai/ha): 45%
